Among the data in patent publication US20040087571A1, “Methods of using CCR1 antagonists as immunomodulatory agents” (Pfizer Inc, priority 2002, published 2004) are melting point values, retold here.

Molecules are shown by their SMILES.

As usually defined, the melting point is the temperature of the solid-liquid transition. Take `CC(C)CC[C@H](C[C@H](O)[C@H](Cc1cccc(F)c1)NC(=O)c1cnc2ccccc2n1)C(N)=O` [Example 135, Quinoxaline-2-carboxylic acid [4(R)-carbamoyl-1(S)-(3-fluoro-benzyl)-2(S)-hydroxy-7-methyl-octyl]-amide]: the melting point lay within 191 to 191.5 °C. For `CNC(=O)C[C@H](C[C@H](O)[C@H](Cc1ccccc1)NC(=O)c1cnc2ccccc2n1)C(=O)NC` [Example 151, 2(S)-{2(S)-hydroxy-4-phenyl-3(S)-[(quinoxaline-2-carbonyl)-amino]-butyl}-N1,N4-dimethyl-succinamide] the value was 178 to 180 °C.

`CNC(=O)[C@H](CCC(C)(C)F)C[C@H](O)[C@H](Cc1ccc(F)cc1)NC(=O)c1cnc2ccccc2n1` [Example 154, Quinoxaline-2-carboxylic acid [7-fluoro-1(S)-(4-fluoro-benzyl)-2(S)-hydroxy-7-methyl-4(R)-methylcarbamoyl-octyl]-amide]: the melting point fell in the range of 145 to 147 °C.

Regarding `CC(C)(F)CC[C@H](C[C@H](O)[C@H](Cc1ccc(Cl)c(Cl)c1)NC(=O)c1cnc2ccccc2n1)C(N)=O` [Example 155, Quinoxaline-2-carboxylic acid [4(R)-carbamoyl-1(S)-(3,4-dichloro-benzyl)-7-fluoro-2(S)-hydroxy-7-methyl-octyl]-amide], the melting point lay in the range of 206 to 207 °C. The result for `CC(C)(F)CC[C@H](C[C@H](O)[C@H](Cc1ccc(Cl)c(Cl)c1)NC(=O)c1cnc2c(F)c(F)ccc2c1)C(N)=O` [Example 156, 7,8-Difluoro-quinoline-3-carboxylic acid [4(R)-carbamoyl-1(S)-(3,4-dichloro-benzyl)-7-fluoro-2(S)-hydroxy-7-methyl-octyl]-amide] reads 187 to 189 °C; that for `NC(=O)C1(C[C@H](O)[C@H](Cc2ccccc2)NC(=O)c2cnc3ccccc3n2)Cc2ccccc2C1` [Example 164, Quinoxaline-2-carboxylic acid [1(S)-benzyl-3-(2-carbamoyl-indan-2-yl)-2(S)-hydroxy-propyl]-amide], 90 to 100 °C. The result for `NC(=O)[C@@H](C[C@H](O)[C@H](Cc1ccccc1)NC(=O)c1cnc2ccccc2n1)C1CCCCC1` [Example 168, Quinoxaline-2-carboxylic acid (1(S)-benzyl-4-carbamoyl-4(S)-cyclohexyl-2(S)-hydroxy-butyl)-amide] reads 222 to 223 °C; that for `NC(=O)[C@@H](C[C@H](O)[C@H](Cc1ccccc1)NC(=O)c1cnc2ccccc2n1)C1CCCCC1` [Example 169, Quinoxaline-2-carboxylic acid (1(S)-benzyl-4-carbamoyl-4(S)-cyclohexyl-2(S)-hydroxy-butyl)-amide], 178 to 180 °C; that for `NC(=O)[C@@H](C[C@H](O)[C@H](Cc1ccccc1)NC(=O)c1cnc2ccccc2n1)C1CCCC1` [Example 171, Quinoxaline-2-carboxylic acid (1(S)-benzyl-4-carbamoyl-4(S)-cyclopentyl-2(S)-hydroxy-butyl)-amide], 126 to 128 °C.

Take `CC(C)CC[C@H](C[C@H](O)[C@H](Cc1ccccc1F)NC(=O)c1cnc2ccccc2n1)C(N)=O` [Example 175, Quinoxaline-2-carboxylic acid [4(R)-carbamoyl-1(S)-(2-fluoro-benzyl)-2(S)-hydroxy-7-methyl-octyl]-amide]: the melting point lay within 213 to 215 °C. On to `CC(C)CC[C@H](C[C@H](O)[C@H](Cc1cscn1)NC(=O)c1cnc2ccccc2n1)C(N)=O` [Example 178, Quinoxaline-2-carboxylic acid (4(R)-carbamoyl-2(S)-hydroxy-7-methyl-1(S)-thiazol-4-ylmethyl-octyl)-amide], for which the melting point lay in the range of 195 to 196 °C. Molecule `CC1(C)CC([C@H](C[C@H](O)[C@H](Cc2ccccc2)NC(=O)c2cnc3ccccc3n2)C(N)=O)CC(C)(C)C1` [Example 179, Quinoxaline-2-carboxylic acid [1(S)-benzyl-4(S)-carbamoyl-2(S)-hydroxy-4-(3,3,5,5-tetramethyl-cyclohexyl)-butyl]-amide] had a melting point of 188 to 190 °C. The result for `NC(=O)[C@@H](C[C@H](O)[C@H](Cc1ccccc1)NC(=O)c1cnc2ccccc2n1)C1CCCCCC1` [Example 181, Quinoxaline-2-carboxylic acid (1(S)-benzyl-4(S)-carbamoyl-4-cycloheptyl-2(S)-hydroxy-butyl)-amide] reads 216 to 217 °C; that for `NC(=O)[C@@H](C[C@H](O)[C@H](Cc1ccccc1)NC(=O)c1cnc2ccccc2n1)C1Cc2ccccc2C1` [Example 192, Quinoxaline-2-carboxylic acid (1(S)-benzyl-4(S)-carbamoyl-2(S)-hydroxy-4-indan-2-yl-butyl)-amide], 190 to 191 °C; that for `NC(=O)[C@H](Cc1ccc(OC(F)(F)F)cc1)C[C@H](O)[C@H](Cc1ccccc1)NC(=O)c1cnc2ccccc2n1` [Example 193, Quinoxaline-2-carboxylic acid [1(S)-benzyl-4(R)-carbamoyl-2(S)-hydroxy-5-(4-trifluoromethoxy-phenyl)-pentyl]-amide], 184 to 187 °C. Molecule `NC(=O)[C@H](Cc1ccc(F)cc1)C[C@H](O)[C@H](Cc1ccccc1)NC(=O)c1cnc2ccccc2n1` [Example 194, Quinoxaline-2-carboxylic acid [1(S)-benzyl-4(R)-carbamoyl-5-(4-fluoro-phenyl)-2(S)-hydroxy-pentyl]-amide] gave a melting point of 164 to 166 °C.

For `CC(C)(F)CC[C@H](C[C@H](O)[C@H](Cc1ccccc1)NC(=O)c1cnc2ccccc2n1)C(=O)NCc1cccnc1` [Example 199, Quinoxaline-2-carboxylic acid {1(S)-benzyl-7-fluoro-2(S)-hydroxy-7-methyl-4(R)-[(pyridin-3-ylmethyl)-carbamoyl]-octyl}-amide], the melting point lay within 188 to 191 °C. The result for `CCC(CC)[C@H](C[C@H](O)[C@H](Cc1ccccc1)NC(=O)c1cnc2ccccc2n1)C(N)=O` [Example 203, Quinoxaline-2-carboxylic acid (1(S)-benzyl-4(S)-carbamoyl-5-ethyl-2(S)-hydroxy-heptyl)-amide] reads 215 to 218 °C; that for `NC(=O)[C@@H](C[C@H](O)[C@H](Cc1ccccc1)NC(=O)c1cnc2ccccc2n1)C1CCOCC1` [Example 204, Quinoxaline-2-carboxylic acid [1(S)-benzyl-4(S)-carbamoyl-2(S)-hydroxy-4-(tetrahydro-pyran-4-yl)-butyl]-amide], 151 to 154 °C. Consider `CC(C)(F)CC[C@H](C[C@H](O)[C@H](Cc1ccccc1)NC(=O)c1cnc2ccccc2n1)C(=O)NCCc1ccccn1` [Example 205, Quinoxaline-2-carboxylic acid [1(S)-benzyl-7-fluoro-2(S)-hydroxy-7-methyl-4(R)-(2-pyridin-2-yl-ethylcarbamoyl)-octyl]-amide], for which the melting point was 155 to 156 °C. The result for `COc1ccc(CNC(=O)[C@H](CCC(C)(C)F)C[C@H](O)[C@H](Cc2ccccc2)NC(=O)c2cnc3ccccc3n2)cc1OC` [Example 206, Quinoxaline-2-carboxylic acid [1(S)-benzyl-4(R)-(3,4-dimethoxy-benzylcarbamoyl)-7-fluoro-2(S)-hydroxy-7-methyl-octyl]-amide] reads 162 to 164 °C; that for `CC1CC(C)CC([C@@H](C[C@H](O)[C@H](Cc2ccccc2)NC(=O)c2cnc3ccccc3n2)C(N)=O)C1` (stereo partly drawn) [Example 210, Quinoxaline-2-carboxylic acid [1(S)-benzyl-4(R)-carbamoyl-4-(3,5-dimethyl-cyclohexyl)-2(S)-hydroxy-butyl]-amide], 221 to 222 °C; that for `CC(C)(F)CC[C@H](C[C@H](O)[C@H](Cc1ccccc1)NC(=O)c1cnc2ccccc2n1)C(=O)NCc1ccccn1` [Example 211, Quinoxaline-2-carboxylic acid {1(S)-benzyl-7-fluoro-2(S)-hydroxy-7-methyl-4(R)-[(pyridin-2-ylmethyl)-carbamoyl]-octyl}-amide], 138 to 140 °C. The result for `CC(C)(F)CC[C@H](C[C@H](O)[C@H](Cc1ccccc1)NC(=O)c1cnc2ccccc2n1)C(=O)NCCc1ccc(O)cc1` [Example 212, Quinoxaline-2-carboxylic acid {1(S)-benzyl-7-fluoro-2(S)-hydroxy-4(R)-[2-(4-hydroxy-phenyl)-ethylcarbamoyl]-7-methyl-octyl}-amide] reads 138 to 140 °C. The molecule `CC(C)(F)CC[C@H](C[C@H](O)[C@H](Cc1ccccc1)NC(=O)c1cnc2ccccc2n1)C(=O)NCc1cccs1` [Example 213, Quinoxaline-2-carboxylic acid {1(S)-benzyl-7-fluoro-2(S)-hydroxy-7-methyl-4(R)-[(thiophen-2-ylmethyl)-carbamoyl]-octyl}-amide] showed a melting point of 174 to 175 °C. For `CC(C)(F)CC[C@H](C[C@H](O)[C@H](Cc1ccccc1)NC(=O)c1cnc2ccccc2n1)C(=O)NCCc1ccc(S(N)(=O)=O)cc1` [Example 216, Quinoxaline-2-carboxylic acid {1(S)-benzyl-7-fluoro-2(S)-hydroxy-7-methyl-4(R)-[2-(4-sulfamoyl-phenyl)-ethylcarbamoyl]-octyl}-amide] the value was 207 to 210 °C; for `CC(C)(F)CC[C@H](C[C@H](O)[C@H](Cc1ccccc1)NC(=O)c1cnc2ccccc2n1)C(=O)NCc1ccncc1` [Example 217, Quinoxaline-2-carboxylic acid {1(S)-benzyl-7-fluoro-2(S)-hydroxy-7-methyl-4(R)-[(pyridin-4-ylmethyl)-carbamoyl]-octyl}-amide], 100 to 104 °C; for `CCSCCNC(=O)[C@H](CCC(C)(C)F)C[C@H](O)[C@H](Cc1ccccc1)NC(=O)c1cnc2ccccc2n1` [Example 218, Quinoxaline-2-carboxylic acid [1(S)-benzyl-4(R)-(2-ethylsulfanyl-ethylcarbamoyl)-7-fluoro-2(S)-hydroxy-7-methyl-octyl]-amide], 78 to 79 °C. For `CC(C)(F)CC[C@H](C[C@H](O)[C@H](Cc1ccccc1)NC(=O)c1cnc2ccccc2n1)C(=O)NCCc1cccnc1` [Example 220, Quinoxaline-2-carboxylic acid [1(S)-benzyl-7-fluoro-2(S)-hydroxy-7-methyl-4(R)-(2-pyridin-3-yl-ethylcarbamoyl)-octyl]-amide] the value was 154 to 155 °C.
